# Target: T1, Cyclic GMP-AMP synthase (Homo sapiens, UniProt Q8N884)
# Experiment: Inhibition of recombinant His6-SUMO tagged human CGAS expressed in Escherichia coli BL21/pLys cells incubated for 20 mins by Kinase Glo chemiluminescence assay
# T1 sequence (Q8N884 whole entry): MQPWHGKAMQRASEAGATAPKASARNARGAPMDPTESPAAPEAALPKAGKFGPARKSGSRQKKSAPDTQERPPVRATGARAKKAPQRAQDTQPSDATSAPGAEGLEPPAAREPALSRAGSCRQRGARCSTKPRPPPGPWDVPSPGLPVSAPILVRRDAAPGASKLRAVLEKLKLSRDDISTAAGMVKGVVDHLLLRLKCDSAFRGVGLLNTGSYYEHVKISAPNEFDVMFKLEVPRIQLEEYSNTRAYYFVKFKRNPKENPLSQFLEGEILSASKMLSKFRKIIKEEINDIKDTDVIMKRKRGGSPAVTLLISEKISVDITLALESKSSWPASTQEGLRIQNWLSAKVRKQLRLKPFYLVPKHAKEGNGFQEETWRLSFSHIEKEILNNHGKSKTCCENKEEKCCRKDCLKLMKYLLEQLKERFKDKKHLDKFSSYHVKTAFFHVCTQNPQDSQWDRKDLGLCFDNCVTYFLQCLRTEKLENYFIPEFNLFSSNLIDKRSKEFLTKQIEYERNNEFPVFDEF
row,SMILES,IC50 [µM]
1,O=C1/C(=C/c2cc(OCc3cccnc3)c(O)cc2Br)Sc2ncccc21,≤ 0.5
2,CN1C(=O)S/C(=C\c2cc(OCc3cnc(Cl)nc3)c(O)c(F)c2Br)C1=O,≥ 10
3,COc1cc(/C=C2\SC(=O)N(C)C2=O)c(Br)cc1NS(=O)(=O)c1csc(N)n1,0.5 to 10
4,CN1C(=O)S/C(=C\c2cc(OCc3cccnc3)c(O)cc2Br)C1=O,≤ 0.5
5,COc1cc(/C=C2\SC(=O)N(C)C2=O)c(Cl)cc1O,≤ 0.5
6,CCN1C(=O)S/C(=C\c2cc(OC)c(O)cc2Br)C1=O,0.5 to 10
7,COc1cc(/C=C2\Sc3ccccc3C2=O)c(Br)cc1O,0.5 to 10
8,CN1C(=O)S/C(=C\c2cc(Oc3ccc(-c4ccncc4)cc3)c(O)cc2Br)C1=O,≥ 10
9,COCCNc1ncc(C(C)Oc2cc(/C=C3\SC(=O)N(C)C3=O)c(Br)cc2O)cn1 (configuration not stated),0.5 to 10
10,O=C1/C(=C/c2cc3nn[nH]c3cc2Br)Sc2ncccc21,≤ 0.5
11,CNc1ncc(COc2cc(/C=C3\SC(=O)N(C)C3=O)c(Br)c(F)c2O)cn1,≤ 0.5
12,CC(C)Nc1ncc(COc2cc(/C=C3\SC(=O)N(C)C3=O)c(Br)cc2O)cn1,≥ 10
13,CN1C(=O)S/C(=C\c2cc(Oc3ccc([N+](=O)[O-])nc3)c(O)cc2Br)C1=O,≥ 10
14,CN1C(=O)S/C(=C\c2cc(OCc3cnc(Nc4ccncc4)nc3)c(O)cc2Br)C1=O,≤ 0.5
15,CN1C(=O)S/C(=C\c2cc(OCc3ccc(NC(=O)c4cccnc4)nc3)c(O)cc2Br)C1=O,0.5 to 10
16,CN1C(=O)S/C(=C\c2cc(OCC(=O)Nc3nncs3)c(O)c(F)c2Br)C1=O,0.5 to 10
17,COc1cccc(Oc2cc(/C=C3\SC(=O)N(C)C3=O)c(Br)cc2O)c1N,≥ 10
18,CCc1cc(/C=C2\SC(=O)N(C)C2=O)c(Br)cc1O,0.5 to 10
19,CC(C)c1cc(/C=C2\SC(=O)N(C)C2=O)c(Br)cc1O,≥ 10
20,CN1C(=O)S/C(=C\c2cc(OCc3ccnc4ccccc34)c(O)cc2Br)C1=O,≥ 10
21,CC(C)C(=O)Nc1cncc(COc2cc(/C=C3\SC(=O)N(C)C3=O)c(Br)cc2O)c1,≥ 10
22,CN1C(=O)S/C(=C\c2cc(OCc3cncc(NCc4ccncc4)c3)c(O)cc2Br)C1=O,≥ 10
23,COc1cc(/C=C2\SC(=O)N(C)C2=O)c(Br)cc1NS(=O)(=O)c1ccccc1,≥ 10
24,[2H]C(C)(Oc1cc(/C=C2\SC(=O)N(C)C2=O)c(Br)c(F)c1O)c1cnc(N)nc1 (configuration not stated),≤ 0.5
25,CN1C(=O)S/C(=C\c2cc(OCc3cnc(NC(=O)c4ccncc4)nc3)c(O)c(F)c2Br)C1=O,≤ 0.5

row,SMILES,IC50 [µM]
1,CN1C(=O)S/C(=C\c2cc(OCc3cncc(N)c3)c(O)cc2Br)C1=O,≥ 10
2,CN1C(=O)S/C(=C\c2cc(OCc3cncc(NC(=O)c4ccncc4)c3)c(O)cc2Br)C1=O,≥ 10
3,CN1C(=O)S/C(=C\c2cc(OCc3cnc(-c4cccnc4)nc3)c(O)cc2Br)C1=O,≥ 10
4,CN1C(=O)S/C(=C\c2cc(O)c(O)cc2F)C1=O,≥ 10
5,CN1C(=O)S/C(=C\c2cc(OCc3cnc(-c4ccccc4)nc3)c(O)cc2Br)C1=O,≥ 10
6,CCC(Oc1cc(/C=C2\SC(=O)N(C)C2=O)c(Br)c(F)c1O)c1cnc(Cl)nc1 (configuration not stated),0.5 to 10
7,CN1C(=O)S/C(=C\c2cc(Oc3ccnc(N)c3)c(O)cc2Br)C1=O,≥ 10
8,CN1C(=O)S/C(=C\c2cc(Oc3ccncc3)c(O)cc2Br)C1=O,≥ 10
9,COc1cc2c(cc1O)CC/C2=C1/SC(=O)N(C)C1=O,≥ 10
10,CN1C(=O)S/C(=C\c2cc(OCc3cnc(N(C)C)nc3)c(O)cc2Br)C1=O,≥ 10
11,CNc1ncc(C(C)Oc2cc(/C=C3\SC(=O)N(C)C3=O)c(Br)cc2O)cn1 (configuration not stated),≥ 10
12,CC(=O)c1cc(/C=C2\SC(=O)N(C)C2=O)c(Br)cc1O,≥ 10
13,COc1cc(/C=C2\SC(=O)N(C)C2=O)c(Br)cc1Oc1nncs1,≥ 10
14,COc1nc(S(C)(=O)=O)ncc1COc1cc(/C=C2\SC(=O)N(C)C2=O)c(Br)cc1O,≥ 10
15,COc1cc(/C=C2\SC(=O)N(C)C2=O)c(Br)cc1-c1nn[nH]n1,≥ 10
16,CC(Oc1cc(/C=C2\SC(=O)N(C)C2=O)c(Br)cc1O)c1cncnc1 (configuration not stated),0.5 to 10
17,CN1C(=O)S/C(=C\c2cc(Oc3cccc4cnccc34)c(O)cc2Br)C1=O,≥ 10
18,CSc1ncc(COc2cc(/C=C3\SC(=O)N(C)C3=O)c(Br)cc2O)c(Cl)n1,≥ 10
19,CC(Oc1cc(/C=C2\SC(=O)N(C)C2=O)c(Br)cc1O)c1cnc(NCCO)nc1 (configuration not stated),0.5 to 10
20,CN1C(=O)S/C(=C\c2cc(CCc3cnc(N)nc3)c(O)cc2Br)C1=O,0.5 to 10
21,CN1C(=O)S/C(=C\c2cc(OCc3ccccn3)c(O)cc2Br)C1=O,≥ 10
22,CN1C(=O)S/C(=C\c2cc(OCc3cn(-c4ccccc4)nn3)c(O)cc2Br)C1=O,≥ 10
23,CN1C(=O)S/C(=C\c2cc(CC(F)(F)F)c(O)cc2Br)C1=O,0.5 to 10
24,CN1C(=O)S/C(=C\c2cc(OCC3CCN(C(=O)c4ccccn4)CC3)c(O)cc2Br)C1=O,≥ 10
25,CN1C(=O)S/C(=C\c2cc(OCC3(c4cnc(N)nc4)CC3)c(O)c(F)c2Br)C1=O,0.5 to 10

# Target: T1, Cyclic GMP-AMP synthase
# Experiment: Inhibition of CGAS in human THP1 cells transfected with interferon stimulatory DNA and measured after 16 hrs by Gaussia luciferase reporter gene assay
# Format: cell-based
row,SMILES,IC50 [µM]
1,O=C1/C(=C/c2cc(OCc3cccnc3)c(O)cc2Br)Sc2ncccc21,2.5 to 10
2,CN1C(=O)S/C(=C\c2cc(OCc3cnc(Cl)nc3)c(O)c(F)c2Br)C1=O,2.5 to 10
3,COc1cc(/C=C2\SC(=O)N(C)C2=O)c(Br)cc1NS(=O)(=O)c1csc(N)n1,≤ 2.5
4,CN1C(=O)S/C(=C\c2cc(OCc3cccnc3)c(O)cc2Br)C1=O,2.5 to 10
5,COc1cc(/C=C2\SC(=O)N(C)C2=O)c(Cl)cc1O,≤ 2.5
6,CCN1C(=O)S/C(=C\c2cc(OC)c(O)cc2Br)C1=O,2.5 to 10
7,COc1cc(/C=C2\Sc3ccccc3C2=O)c(Br)cc1O,≤ 2.5

# — ChEMBL document CHEMBL4418308, “cGAS ANTAGONIST COMPOUNDS” (2017)
